Laboratory results as given in patent US11225504B2, “Functional polypeptide and its application thereof in preparing medicament for preventing and treating pulmonary fibrosis” (Guangdong Medical University, priority 2017, dated 2022).
Residues, ends and D or L forms follow the SMILES beside them.

Experiments:
[1] = test system: human normal lung epithelial cell BEAS-2B; test: Growth effects on human normal lung epithelial cell BEAS-2B (FIG. 4); type: cell-based
[2] = test system: bleomycin-induced pulmonary fibrosis; test: Prevention and treatment of pulmonary fibrosis IPF experiment (bleomycin-induced, mice); type: in vivo, C57 mice
Procedure: (1) Animals: SPF grade C57 mice, 22 g±2 g, 60 mice, females. The mice was divided into the following groups using the random digits table: the control group, the model group, the pirfenidone group (50 mg/kg), the EZY-1 polypeptide low dose group (0.25 mg/kg), the EZY-1 polypeptide medium dose group (0.5 mg/kg), the EZY-1 polypeptide high dose group (1.0 mg/kg), 10 animals per group. (3) After the mice were anesthetized by intraperitoneal injection of 1% sodium pentobarbital at a dose of 50 mg/kg, they are fixed to the operation console on their back. Their tongues were pulled out with tweezers to expose the trachea, and 5 mg/kg Bleomycin was slowly injected under a cold light source magnifying glass. Immediately after the injection, the operation console was erected and rotated for 3 minutes to evenly distribute the drug solution in the lungs. The control group was injected with an equal volume of isotonic saline in the same way as the previous method. After 10 days, the mice were intra-gastrically administered with 0.1 ml/10 g with drugs. The control group and the model group were intra-gastrically administered with an equal volume of isotonic saline. The other groups were intra-gastrically administered with the corresponding dose of the drug for 35 days, once a day. After 35 days of drug administration, the mice were anesthetized and sacrificed, and the two intact lung tissues were isolated and weighed. The same part of the right upper lobe was taken, fixed with 4% paraformaldehyde for 48 hours, and paraffin sections were generated for Hematoxylin-Eosin (HE) staining for histopathological observations. The same part of the […] was taken for the measurement of HYP content in the lung tissue. Plasma was collected for the measurement of T-SOD, MDA, and GSH-PX levels. Statistical analysis was performed using SPSS 17.0 software. Measurement data were expressed as mean±standard deviation (x±s). Comparison of the means in multiple samples was performed by one-way ANOVA. Comparison between groups was performed by t test, with P≤0.05 indicating statistically significant differences.

[3] = 50 mg/kg intragastric once a day for 35 days, bleomycin mice, mean ± SD

| SMILES | toxicity to normal cells (growth of BEAS-2B) [1] | GSH-PX (plasma) [2, 3] [active unit] | HYP (lung tissue) [2, 3] | MDA (plasma) [2, 3] [nmal/mL] | T-SOD (plasma) [2, 3] [U/mL] | pathological changes of lung tissue (HE staining, FIG. 5) ([2]; EZY-1 low, medium and high dose (0.25, 0.5, 1.0 mg/kg), pirfenidone 50 mg/kg, 35 days) |
| --- | --- | --- | --- | --- | --- | --- |
| CC[C@H](C)[C@H](NC(=O)CNC(=O)[C@H](CC(N)=O)NC(=O)[C@H](Cc1ccc(O)cc1)NC(=O)[C@@H](NC(=O)[C@@H](NC(=O)[C@H](CS)NC(=O)[C@H](Cc1ccccc1)NC(=O)[C@H](CS)NC(=O)[C@H](C)NC(=O)CNC(=O)[C@@H](NC(=O)[C@@H](N)CCCNC(=N)N)[C@@H](C)O)C(C)C)[C@@H](C)CC)C(=O)N[C@@H](CC(C)C)C(=O)N[C@@H](Cc1ccc(O)cc1)C(=O)N1CCC[C@H]1C(=O)O [EZY-1 polypeptide, RTGACFCVIYNGILYP] (H-RTGACFCVIYNGILYP-OH) | low toxicity to normal cells |  |  |  |  |  |
| Cc1ccc(=O)n(-c2ccccc2)c1 [pirfenidone] |  | 672.92 ± 98.72 | 48.36 ± 5.01 μg/g lung tissues Wet weight | 6.52 ± 0.71 | 156.05 ± 17.32 | reduce alveolar structural damage, reduce collagen fiber production, and inhibit the inflammatory cell infiltration |
